Reference: patent publication US10890591B2, “Methods and dose packs for monitoring medication adherence” (Synapse Biosciences, LLC, priority 2016, dated 2021)

Columns and labels:
[1] = Multiple Marker Experiment 1: saliva samples, marker concentration by LC-MS/MS; conditions: human, in vivo;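 also: mean across four subjects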
Text: (§1) All other markers were obtained from commercial sources. Urine and saliva were collected prior to each day's dosing of marker confirming the presence or absence of markers before the experiment started. […] The presence of all 7 markers at day 8 would confirm that all markers were ingested in the previous 7 day one week period.
(§2) Healthy volunteers with no recent exposure to the markers who were not currently taking prescribed medications, OTC medications or vitamins and supplements were chosen. Exposure to the markers more than one month before starting the experiment was allowed and no dietary restrictions were required. Subjects were given a 7 day blister pack with markers sequenced in the order above. Subjects verbally confirmed they understood the urine and saliva collection procedures. Instructions printed on the marker blister pack instructed subjects to collect urine and saliva each morning before they took the daily dose of marker. They were also instructed to take the daily dose of marker close to the same time each day.

[2] = Multiple Marker Experiment 1: urine samples, adherent with all markers, marker concentration by LC-MS/MS; conditions: for Subject A, Urine Results / Subject B, Urine Results / Subject C, Urine Results / Subject D, Urine Results / Average of Urine Samples / concentration at 8 day: each marker dosed once
Text: as §1, §2

[3] = Multiple Marker Experiment 2: urine samples, simulated non-adherence (one marker dose skipped per subject), LC-MS/MS; conditions: for Subject B, Urine Results / Subject C, Urine Results: collected before that day's dose; for Subject B, Urine Results / Subject C, Urine Results / concentration at 8 day: other markers dosed once; for concentration at 8 day: Urine Results, Day 8 sample
[4] = Day 1 sample, collected before that day's dose, Experiment #1, adherent with all markers
[5] = Day 2 sample, collected before that day's dose, Experiment #1, adherent with all markers
[6] = Day 3 sample, collected before that day's dose, Experiment #1, adherent with all markers
[7] = Day 4 sample, collected before that day's dose, Experiment #1, adherent with all markers
[8] = Day 5 sample, collected before that day's dose, Experiment #1, adherent with all markers
[9] = Day 6 sample, collected before that day's dose, Experiment #1, adherent with all markers
[10] = Day 7 sample, collected before that day's dose, Experiment #1, adherent with all markers
[11] = Day 8 sample, Experiment #1, adherent with all markers

COc1ccc2c(c1)[C@]13CCCC[C@@H]1[C@H](C2)N(C)CC3 [DXM, Dextromethorphan]
concentration at 1 day [1]: 0 ng/mL | concentration at 2 day [1]: 0 ng/mL | concentration at 3 day [1]: 0 ng/mL | concentration at 4 day [1]: 8.4 ng/mL | concentration at 5 day [1]: 1.52 ng/mL | concentration at 6 day [1]: 0.501 ng/mL | concentration at 7 day [1]: 0.439 ng/mL | concentration at 8 day [1]: 0.197 ng/mL | Subject A, Urine Results [2, 4]: 0 ng/mL | Subject B, Urine Results [2, 4]: 0 ng/mL | Subject C, Urine Results [2, 4]: 0 ng/m | Subject D, Urine Results [2, 4]: 0 ng/m | Subject A, Urine Results [2, 5]: 0 ng/mL | Subject B, Urine Results [2, 5]: 0 ng/mL | Subject C, Urine Results [2, 5]: 0 ng/m | Subject D, Urine Results [2, 5]: 0 ng/m | Subject A, Urine Results [2, 6]: 0 ng/mL | Subject B, Urine Results [2, 6]: 0 ng/mL | Subject C, Urine Results [2, 6]: 0 ng/m | Subject D, Urine Results [2, 6]: 0 ng/m | Subject A, Urine Results [2, 7]: 146 ng/mL | Subject B, Urine Results [2, 7]: 358 ng/mL | Subject C, Urine Results [2, 7]: 187 ng/m | Subject D, Urine Results [2, 7]: 641 ng/m | Average of Urine Samples ([2]; Day 4 sample, collected before that day's dose, average of subjects A, B, C, D, Experiment 1): 333 ng/mL | Subject A, Urine Results [2, 8]: 11.7 ng/mL | Subject B, Urine Results [2, 8]: 31.4 ng/mL | Subject C, Urine Results [2, 8]: 15 ng/m | Subject D, Urine Results [2, 8]: 51.8 ng/m | Average of Urine Samples ([2]; Day 5 sample, collected before that day's dose, average of subjects A, B, C, D, Experiment 1): 27.475 ng/mL | Subject A, Urine Results [2, 9]: 3.6 ng/mL | Subject B, Urine Results [2, 9]: 17.8 ng/mL | Subject C, Urine Results [2, 9]: 4.84 ng/m | Subject D, Urine Results [2, 9]: 4.53 ng/m | Average of Urine Samples ([2]; Day 6 sample, collected before that day's dose, average of subjects A, B, C, D, Experiment 1): 7.6925 ng/mL | Subject A, Urine Results [2, 10]: 0.987 ng/mL | Subject B, Urine Results [2, 10]: 3.96 ng/mL | Subject C, Urine Results [2, 10]: 2.12 ng/m | Subject D, Urine Results [2, 10]: 2.61 ng/m | Average of Urine Samples ([2]; Day 7 sample, collected before that day's dose, average of subjects A, B, C, D, Experiment 1): 2.419 ng/mL | Subject C, Urine Results [2, 11]: 0.787 ng/m | Subject D, Urine Results [2, 11]: 1.26 ng/m | course of urine levels relative to dosing ([2]; Experiment 1, days 1-8): zero before dosing, peaked the day after dosing and slowly decreased over time | concentration at 1 day ([2]; human, in vivo): 0 ng/mL | concentration at 2 day ([2]; human, in vivo): 0 ng/mL | concentration at 3 day ([2]; human, in vivo): 0 ng/mL | concentration at 8 day ([2]; human, in vivo, Average of Urine Samples, Day 8 sample, average of subjects A, B, C, D, Experiment 1): 1.49 ng/mL | concentration at 8 day ([2]; human, in vivo, Subject A, Urine Results, Day 8 sample, Experiment #1, adherent with all markers): 0.341 ng/mL | concentration at 8 day ([2]; human, in vivo, Subject B, Urine Results, Day 8 sample, Experiment #1, adherent with all markers): 3.56 ng/mL | Subject B, Urine Results ([3]; Day 1 sample, Experiment #2, subject B skipped diphenhydramine on day 5): 0 ng/mL | Subject C, Urine Results ([3]; Day 1 sample, Experiment #2, subject C skipped Loperamide on day 2): 0 ng/mL | Subject B, Urine Results ([3]; Day 2 sample, Experiment #2, subject B skipped diphenhydramine on day 5): 0 ng/mL | Subject C, Urine Results ([3]; Day 2 sample, Experiment #2, subject C skipped Loperamide on day 2): 0 ng/mL | Subject B, Urine Results ([3]; Day 3 sample, Experiment #2, subject B skipped diphenhydramine on day 5): 0 ng/mL | Subject C, Urine Results ([3]; Day 3 sample, Experiment #2, subject C skipped Loperamide on day 2): 0 ng/mL | Subject B, Urine Results ([3]; Day 4 sample, Experiment #2, subject B skipped diphenhydramine on day 5): 2640 ng/mL | Subject C, Urine Results ([3]; Day 4 sample, Experiment #2, subject C skipped Loperamide on day 2): 377 ng/mL | Subject B, Urine Results ([3]; Day 5 sample, Experiment #2, subject B skipped diphenhydramine on day 5): 181 ng/mL | Subject C, Urine Results ([3]; Day 5 sample, Experiment #2, subject C skipped Loperamide on day 2): 40 ng/mL | Subject B, Urine Results ([3]; Day 6 sample, Experiment #2, subject B skipped diphenhydramine on day 5): 14.7 ng/mL | Subject C, Urine Results ([3]; Day 6 sample, Experiment #2, subject C skipped Loperamide on day 2): 1.35 ng/mL | Subject B, Urine Results ([3]; Day 7 sample, Experiment #2, subject B skipped diphenhydramine on day 5): 16.6 ng/mL | Subject C, Urine Results ([3]; Day 7 sample, Experiment #2, subject C skipped Loperamide on day 2): 1.11 ng/mL | course of urine levels relative to dosing ([3]; Experiment 2, days 1-8): zero before dosing, peaked the day after dosing and slowly decreased over time | concentration at 1 day ([3]; human, in vivo): 0 ng/mL | concentration at 2 day ([3]; human, in vivo): 0 ng/mL | concentration at 3 day ([3]; human, in vivo): 0 ng/mL | concentration at 8 day ([3]; human, in vivo, Subject B, Experiment #2, subject B skipped diphenhydramine on day 5): 2.63 ng/mL | concentration at 8 day ([3]; human, in vivo, Subject C, Experiment #2, subject C skipped Loperamide on day 2): 0.15 ng/mL
